Assay results reported in patent US10988523B2, “Modified lipidated Relaxin B chain peptides and their therapeutic use” (Sanofi, priority 2018, dated 2021).
Read-outs that look alike come from different tables or passages of the source. Marks after values point to notes of the source that are not given here. *1 amine or outer side, *2 acyl side, *3 side chain or, on linkers, in order; H or OH if unused. Where a SMILES comes first, the peptide text is derived from it. Side-chain parts run from the residue outwards. [ ]: non-standard residue; d: D form. The star is where a group is joined. γGlu = O=C(O)[C@H](CCC(=O)[*:2])N[*:1]; Palmitoyl = CCCCCCCCCCCCCCCC(=O)*; αMeK = C[C@](N)(CCCCN)C(=O)O; Nle = CCCC[C@H](N)C(=O)O; AEEA = NCCOCCOCC(=O)O; Aib = CC(C)(N)C(=O)O

How the values were obtained:
RXFP1 = biological target: T1, RXFP1 (Homo sapiens, UniProt Q9HBX9); test: OVCAR5 cAMP assay (HTRF), RXFP1 agonist activity; assay type: cell-based; conditions: for Emax: OVCAR-5; for EC50: OVCAR5 cells expressing endogenous RXFP1, cAMP readout, 30 min, 1 mM IBMX, read-out: EC50 cAMP assay in OVCAR 5 cells
T1 construct: OVCAR5 cells expressing endogenous RXFP1; endogenous in cells; host or cells: OVCAR5 cells
T1 sequence (Q9HBX9 1-757): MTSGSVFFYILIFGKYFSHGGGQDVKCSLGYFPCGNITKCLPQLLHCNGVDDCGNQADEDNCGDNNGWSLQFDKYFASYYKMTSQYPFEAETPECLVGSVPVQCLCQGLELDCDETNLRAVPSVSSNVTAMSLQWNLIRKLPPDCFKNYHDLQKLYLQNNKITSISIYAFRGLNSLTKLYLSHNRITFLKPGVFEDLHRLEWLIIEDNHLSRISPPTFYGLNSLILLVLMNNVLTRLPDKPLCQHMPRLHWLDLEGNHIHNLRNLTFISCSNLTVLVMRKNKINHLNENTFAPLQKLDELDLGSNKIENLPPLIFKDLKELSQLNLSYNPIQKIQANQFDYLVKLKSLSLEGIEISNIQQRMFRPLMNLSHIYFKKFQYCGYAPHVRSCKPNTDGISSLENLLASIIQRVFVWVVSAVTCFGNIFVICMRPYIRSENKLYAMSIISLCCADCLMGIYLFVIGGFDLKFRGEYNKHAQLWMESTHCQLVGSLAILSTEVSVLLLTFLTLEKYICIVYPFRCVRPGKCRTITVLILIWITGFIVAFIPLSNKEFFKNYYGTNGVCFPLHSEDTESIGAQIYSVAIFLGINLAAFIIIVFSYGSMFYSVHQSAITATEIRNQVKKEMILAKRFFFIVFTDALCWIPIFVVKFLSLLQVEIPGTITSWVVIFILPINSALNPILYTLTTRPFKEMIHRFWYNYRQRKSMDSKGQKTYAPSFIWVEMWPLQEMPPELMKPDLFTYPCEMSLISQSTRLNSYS
Method in brief: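 cAMP accumulation readout: after 1 mM IBMX for 40 min, endogenous-RXFP1 OVCAR5 cells got rising peptide concentrations without FCS, 30 min, 37° C, then lysis with HTRF cAMP reagents. Nonlinear regression gave EC50; Emax expressed relative to H2-relaxin maximum, same occasion.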

[1] = Solubility testing of peptides in buffer; assay type: physicochemical
Experimental: Prior to the testing of solubility of a peptide batch, its purity (HPLC-UV) was determined.
Acetate Buffer 50 mM pH4.5: 0.75 g […], 3H2O (Sigma 57545)+0.35 ml CH3CO2H 100% solution dissolved in Millipore water, adjusted to pH with diluted (1:1) CH3CO2H and diluted to 250 ml with Millipore water.
In a 4 ml Ependorph vial, an accurately weighed sample of compound was diluted in study media to obtain target concentration of 2, 6 or 10 mg/ml of pure compound. The sample vials were shacked (rock 'roll shaker) for ˜19 h. 3004, Aliquots ( ) were filtered through a Millipore “Solvinert” plate (0.45 μm—PTFE hydrophilic).
pH was measured with a micro electrode
Waters Acquity UPLC System with DAD detector
Column: Waters Peptide Column CSH C18 (130 Å; 1.7 μm; 50*2.1 mm)
Column temperature: 60° C.
Full loop (about 5 μL)—overfill factor 5
Weak et Strong wash: H2O/ACN (75/25; V/V); Seal wash: H2O/IsOH (95/5; V/V). Mobile phase:
Solvent A: 0.05% TFA in H2O; Solvent B: 0.035% TFA in CH3CN
Gradient: from 0 to 12 min B=2% to 60%, from 12 to 14 min B=60% to 100%. Column washing 100% B 1 min, column equilibration 2% B 2.5 min.
UV detector: wavelength: 220 nm.

[2] = Stability testing of peptides in human plasma or blood; assay type: in vitro ADME; conditions: 37° C.; for Human Plasma stability % remaining T = 0: human plasma or blood, T = 0 (reference); for remaining at 1 h, 5 µM / remaining at 4 h, 5 µM: human plasma; for remaining at 1 h, 5 µM: read-out: Human Plasma stability % remaining 1 h; for remaining at 4 h, 5 µM: read-out: Human Plasma stability % remaining 4 h
Experimental: (§1) Prior to the testing of stability in plasma (or blood) of a peptide batch, its purity (HPLC-UV) was determined.
(§2) Rat and Human plasma: anti-coagulant sodium or lithium heparin.
(§3) Rat and Human blood: anti-coagulant sodium or lithium heparin. • Stock solution: • 100 μM solution of study compound in 50 mM Phosphate buffer pH 7.4. • 950 μL plasma (or blood) was pre-incubated for 5 min at 37° C. 50 μL of compound stock solution was added. Final compound concentration=5 μM. Vortex and transfer 1504, plasma (or blood) into an Eppendorf for each time point. The time points […] were carried out in duplicate for each species.
(§4) After incubation 150 μL, plasma (or blood) was extracted with 600 μL, Acetonitrile containing with 1% TFA. Then, vortexed and centrifuged 10 min at 14600 rpm. 200 μL supernatant was dried under N2. The sample was reconstituted in 200 μL of H2O/CH3CN 98/2+0.1% FA+50 ng/ml Labetalol and analyzed using the analytical system used in solubility and stability studies.
(§5) For determination of the amount of the remaining peptide, the peak areas of the target compound at t0 and each time point […] were compared, resulting in “% remaining peptide”, following the equation: % remaining peptide=[(peak area peptide time)×100]/peak area peptide t0. The stability is expressed as “% remaining peptide”.

[3] = Stability testing of peptides in rat plasma or blood; assay type: in vitro ADME; conditions: 37° C.; for Rat plasma stability % remaining T = 0: rat plasma or blood, T = 0 (reference); for remaining at 1 h, 5 µM / remaining at 4 h, 5 µM: rat plasma; for remaining at 1 h, 5 µM: read-out: Rat plasma stability % remaining 1 h; for remaining at 4 h, 5 µM: read-out: Rat plasma stability % remaining 4 h
Experimental: as §1, §2, §3, §4, §5

[4] = Pharmacokinetic (PK) determination after i.v. or s.c. administration to rats; assay type: in vivo, Sprague Dawley rats; conditions: Rat PK
Method in brief: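 Non-compartmental analysis of plasma LC/MS data (protein precipitation, BLQ taken as zero) gave T½, C0 (i.v.), Cmax/Tmax (s.c.) and F% from dose-corrected AUCs. Dosing: 3 mg/kg s.c. or 1 mg/kg i.v. in PBS to Sprague Dawley rats, purity- and salt-corrected.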

[5] = maximal cAMP relative to H2-relaxin maximal cAMP x 100, read-out: Emax cAMP assay in OVCAR 5 cells
[6] = acetate buffer 50 mM pH 4.5, target solubility 2.0 mg/ml, read-out: Solubility Acetate buffer pH 4.5
[7] = phosphate buffer 50 mM pH 7.4, target solubility 2.0 mg/ml, read-out: Solubility phosphate buffer pH 7.4

Human Plasma stability % remaining T = 0 ([2]; 5 μM) [%]	Rat plasma stability % remaining T = 0 ([3]; 5 μM) [%]	EC50 (RXFP1) [nM]	Emax (RXFP1; [5]) [%]	solubility [1, 6] [µg/mL]	solubility [1, 7] [µg/mL]	remaining at 1 h, 5 µM ([2]; 1 h) [%]	remaining at 4 h, 5 µM ([2]; 4 h) [%]	remaining at 1 h, 5 µM ([3]; 1 h) [%]	remaining at 4 h, 5 µM ([3]; 4 h) [%]	Molecule	other results
100	100	–	–	–	–	–	–	–	–	CCCCCCCCCCCCCCCC(=O)N[C@@H](CCC(=O)N[C@@H](CCC(=O)N[C@@H](CCC(=O)N[C@@H](CCC(=O)NCCOCCOCC(=O)NCCOCCOCC(=O)NCCOCCOCC(=O)NCCOCCOCC(=O)NCCCC[C@H](NC(=O)[C@H](CCCCNC(C)=O)NC(=O)[C@H](C)NC(=O)[C@H](CCCNC(=N)N)NC(=O)[C@](C)(CCCCN)NC(=O)[C@H](CO)NC(=O)[C@H](Cc1ccccc1)NC(=O)[C@@H](NC(=O)[C@H](CO)NC(=O)[C@H](CCCC)NC(=O)CNC(=O)[C@H](CCC(=O)O)NC(=O)C(C)(C)NC(=O)C(C)(C)NC(=O)[C@@H](NC(=O)[C@H](CCCCNC(C)=O)NC(=O)[C@H](C)NC(=O)[C@H](CCCNC(=N)N)NC(=O)[C@@H](NC(=O)[C@H](CCCCN)NC(=O)[C@H](CCC(=O)O)NC(=O)[C@H](CCCNC(=N)N)NC(=O)CNC(=O)[C@H](CCC(=O)O)NC(=O)[C@H](CC(C)C)NC(C)=O)C(C)C)[C@@H](C)CC)[C@@H](C)O)C(N)=O)C(=O)O)C(=O)O)C(=O)O)C(=O)O [compound 154] (Ac-LEGREKVRAK(Ac)I[Aib][Aib]EG[Nle]STFS[αMeK]RAK(Ac)K([AEEA-AEEA-AEEA-AEEA-γGlu-γGlu-γGlu-γGlu-Palmitoyl])-NH2)	Emax (RXFP1; maximal cAMP relative to H2-relaxin maximum (100%), read-out: EMax, OVCAR 5 cells (cAMP)): 92%; Solubility Acetate buffer pH 4.5 ([1]; acetate buffer 50 mM pH 4.5, target solubility 10.0 mg/ml): >10 mg/ml****; Solubility phosphate buffer pH 7.4 ([1]; phosphate buffer 50 mM pH 7.4, target solubility 10.0 mg/ml): >10 mg/ml****; Human stability in blood % remaining 1 h ([2]; human blood, 1 h, 5 μM): 91** %; Human stability in blood % remaining 4 h ([2]; human blood, 4 h, 5 μM): 96** %; Rat stability in blood % remaining 1 h ([3]; rat blood, 1 h, 5 μM): 99** %; Rat stability in blood % remaining 4 h ([3]; rat blood, 4 h, 5 μM): 95** %; T½ ([4]; 1 mg/kg i.v.): 5.00 h; C0 ([4]; 1 mg/kg i.v., extrapolated plasma concentration at t=0, read-out: C0): 4.52 µM; Cmax ([4]; 3 mg/kg s.c.): 1.89 µM; Tmax (-h) ([4]; 3 mg/kg s.c.): 8.0 h; F % ([4]; 3 mg/kg s.c. vs 1 mg/kg i.v., dose-corrected AUC ratio): 72%
100	100	206	84	2300	177	41	31	23	14	Ac-VIKLSGRELVRAQIAISGMSTWSKKKK-NH2 [KKKK(AcB7-29 C11.23S), reference compound]	–
100	100	–	70	1540	< 1	67	18	16	2	Ac-VIKLSGRELVRAQIAISGMSTWSKRSL-NH2 [AcB7-33 C11.23S, reference compound]	–
100	100	1640	90	–	–	18	3	15	2	H-VIKLSGRELVRAQIAISGMSTWSKRSL-NH2 [B7-33 C11.23S, reference compound]	Solubility Acetate buffer pH 4.5 ([1]; acetate buffer 50 mM pH 4.5, target solubility 2.0 mg/ml): 1.9 mg/ml; Solubility phosphate buffer pH 7.4 ([1]; phosphate buffer 50 mM pH 7.4, target solubility 2.0 mg/ml): 0.014 mg/ml
